In patent US20050064044A1, “GSK-3beta inhibitors in the treatment of bone-related diseases” (priority 2003, published 2005):
Entries after “also recorded” stand apart in the source; their conditions may differ.

Legend:
LRP5 knockout mice = test: Bone phenotype of LRP5 knockout mice, micro-CT tomodensitometric analysis of tibia; type: in vivo
Procedure: In vivo model uses LRP5 knock-out animals that show osteopenia phenotype resulting from the absence of the Wnt canonical signalling pathway, said signalling pathway involving GSK-3β. Thanks to this model, the effect of GSK-3β inhibitors on bone mass can be observed.
LRP5 knockout mouse model has been described as an osteopenic mouse model (Kato et al., 2002).
LiCl solution was prepared in distillated water at 55 mg/ml. Compound was administered by micropump Alzet (ref: 1002, Charles Rivers, France) to 2-3 week-old LRP5 knockout (KO) mice for 2 weeks. Tibia were prepared for tomographic analysis (Tomodensitometer Scanco μCT20, Basserdorf, Switszerland). Micro-CT scans of the metaphyseal tibia were performed at an isotropic resolution of 9 μm, to obtain trabecular bone structural parameters. Using a two- and three-dimensional model and a semiautomatic contouring algorithm, three-dimensional bone volume, bone surface, and trabecular thickness were determined (FIG. 6).
Statistical significance was determined by the ANOVA unpaired t'test.
Results of tomodensitometric analysis of metaphyseal trabecular part of tibia from 5 week-old and 4 week-old LRP5-KO mice treated with vehicle or LiCl (200 mg/kg/d) during 15 days are given in FIGS. 4 and 5, respectively.

C3H10T1/2 cells = test: Alkaline phosphatase (ALP) osteoblast differentiation marker in C3H10T1/2 cells; type: cell-based; details: C3H10T1/2 cells stimulated for 48 h; ALP activity normalized for total protein; FIG. 2
Text: In vitro model used the pluripotent mesenchymal cell line C3H10T1/2 that is able to differentiate into osteoblasts when triggered with the right compound or protein. The ability of a compound to induce these C3H10T1/2 cells to differentiate into osteoblasts can be monitored by, for instance, measuring the expression of the osteoblast differentiation marker, alkaline phosphatase (ALP).
Whether inhibition of GSK-3β by LiCl in C3H10T1/2 cells leads to the expression of ALP was investigated.
C3H10T1/2 cells were stimulated with LiCl or with NaCl for 48 h. ALP activity was determined in cell lysates using Alkaline Phosphatase Opt kit (Roche Molecular Biochemicals). Cell lysates were analyzed for protein content using micro-BCA Assay kit (Pierce), and ALP activity was normalized for total protein concentration.

[1] = tested on: Wnt/β-catenin signalling (GSK-3β inhibition) in C3H10T1/2 cells; test: Wnt signalling luciferase reporter construct in C3H10T1/2 cells; type: cell-based; details: C3H10T1/2 cells stimulated for 24 h; firefly normalized to Renilla luciferase; FIG. 1
Procedure: Whether inhibition of GSK-3β in C3H10T1/2 cells leads to Wnt/β-catenin signalling activation was investigated.
C3H10T1/2 cells were transiently transfected using Fugen6 (Boehringer) with a Wnt signalling luciferase reporter construct (van de Wetering et al., 1997). To assess transfection efficacy, 20 ng of pRL-TK (Promega) encoding a Renilla luciferase gene downstream of a minimal HSV-TK promoter was systematically added to the transfection mix. Cells were stimulated with LiCl or with NaCl for 24 h. Cells were lysated and luciferase assays were performed with the Dual Luciferase Assay Kit (Promega) according to the manufacturer's instructions. 10 μl of cell lysate was assayed first for firefly luciferase and then for Renilla luciferase activity. Firefly luciferase activity was normalized to Renilla luciferase activity.

[2] = 4 week-old LRP5-KO mice treated for 15 days, vs vehicle, FIG. 6B/6D
[3] = 4 week-old LRP5-KO mice, 200 mg/kg/d during 15 days, metaphyseal trabecular tibia, vs vehicle, FIG. 5
[4] = 5 week-old LRP5-KO mice, 200 mg/kg/d during 15 days, metaphyseal trabecular tibia, vs vehicle, FIG. 4

[Cl-].[Li+] [LiCl, lithium]
bone volume, 3-D reconstruction of trabecular part of tibia (LRP5 knockout mice; [2]): increase
trabecular thickness, 3-D reconstruction of trabecular part of tibia (LRP5 knockout mice; [2]): increase
BV/TV (bone volume) (LRP5 knockout mice; [3]): significantly increase
Tb.N (trabecular number) (LRP5 knockout mice; [3]): significantly increase
Tb.Th (trabecular thickness) (LRP5 knockout mice; [3]): significantly increase
BV/TV (bone volume) (LRP5 knockout mice; [4]): significantly increase
Tb.N (trabecular number) (LRP5 knockout mice; [4]): significantly increase
bone phenotype (osteopenia) of LRP5 knockout mice (LRP5 knockout mice; LRP5-KO mice, FIGS. 4 and 5): partially reversed; also recorded: partly restored
expression of the ALP osteoblast differentiation marker (C3H10T1/2 cells): able to stimulate the expression of the ALP osteoblast differentiation marker
luciferase expression (Wnt-signalling luciferase reporter) [1]: able to activate luciferase expression
